Experimental data taken from US20110251135A1, “INHIBITORS OF PERITONEAL SEEDING OF CANCER CELLS” (University of Utah Research Foundation, priority 2008, published 2011).
“Also recorded” adds a separate entry of the source.

Tests used:
adherent HT-29 cells = assay: Annexin V-FITC apoptosis assay, adherent cells; format: cell-based, human
Source text: FIG. 3 is a group of graphs that show NF-κB inhibitors cause apoptosis of colon cancer cells. […] The data points represent the average percent of annexin V-positive, propidium iodide-negative cells (of the total cells counted) from triplicate experiments. The error bars represent the standard error of the means. […] The results shown are a graphic representation of individual flow cytometry results expressed as the percentage of cells that were annexin V-positive of those that excluded propidium iodide. […] An immunoblot of the lysates for cleaved PARP was performed. Each lane represents equal total protein concentrations. […] The cells were allowed to adhere to plastic dishes for 1 hour after which they were washed gently in PBS and stained with crystal violet. The crystal violet stained cells were solubilized in deoxycholate and the absorbance detected in a spectrophotometer at 590 nm. The adherent cells were expressed as a fraction of the controls. Each data point represents the average of triplicate experiments and the error bars the standard errors of the means.
The data points represent the means of triplicate experiments and the error bars the standard errors of the means. […] The percent of apoptotic cells was then determined by the annexin V assay. […] The results shown are typical of two separate experiments. […] Immunoblots were performed for c-IAP-2, TRAF-1, TRAF-2, and FLIP. All lanes contain equal total protein.
Single cell suspensions were plated at 100,000 cells per well in 24-well plates in media containing DMSO, BAY 11-7082, BAY 11-7085, or MG-132 for 8-24 hours in an incubator. Alternatively, DMSO, BAY 11-7082, BAY 11-7085, or MG-132 were added to cells that were confluent and adherent for several days. The nonadherent cells were aspirated off with the media and spun for 3 minutes at 2,000 rpm in 15 mL polypropylene tubes. The adherent cells were washed twice with PBS, dispersed in trypsin, and spun down for 3 minutes at 2,000 rpm in 15 mL polypropylene tubes. The nonadherent and adherent cells were resuspended in 1× binding buffer (10 mM HEPES/NaOH, pH 7.4, 140 mM NaCl, and 2.5 mM CaCl2) to a final concentration of 10^6 cells/mL. 100 μL of the cell solution were transferred to a 5 mL culture tube and incubated with 5 μL of annexin V-FITC-conjugated monoclonal antibody (Pharmingen) and 10 μl, of propidium iodide (from a 50 μg/mL stock solution made in PBS) in the dark at 25° C. for 15 minutes. 400 μL of binding buffer was added to each tube and the cells were analyzed by flow cytometry immediately. The percent of apoptosis was determined as the percent of annexin V-positive, propidium iodide-negative cells of the total cells counted.

HCT-116 cells = assay: Intraabdominal seeding model, intraperitoneal injection of colon cancer cells into athymic mice (21 days); format: in vivo, mouse; conditions: HCT-116 IP in athymic mice; after 21 days; regardless of vehicle or BAY 11-7085
Source text: FIG. 6 is a group of photographs showing an intraabdominal seeding model. FIGS. 6A, B, C show tumor implants of the liver of three athymic mice 21 days after receiving intraperitoneal injections of HT-29 cells. The mice were pretreated and treated for a total of 21 days with DMSO twice weekly. […] The mouse was pretreated and treated for a total of 21 days with DMSO twice weekly. FIG. 6E is a micrograph showing tumor invasion through the liver capsule. This section was obtained from the tumor implant from the mouse in FIG. 6A. […] FIG. 6G, (liver), FIG. 6H, (abdominal wall), and FIG. 6I, (intestinal) show tumor implants in three athymic mice 21 days after receiving intraabdominal injections of HCT-116 cells. All of the mice were treated with 5 mg/kg of BAY 11-7085 twice weekly.
HT-29 and HCT-116 cells were harvested in 0.25% trypsin-PBS-EDTA, washed once in media and PBS, and resuspended in PBS at 1 million cells per 200 μL. […] Subcutaneous tumor sizes were determined by measuring the length and width with calipers. […]
During colorectal cancer surgery, seeding of the peritoneal cavity by tumor cells with tumor cell implantation of the peritoneal surfaces can occur. Seeding results from the transient suspension of cancer cells, through a loss of adhesion either naturally ro because of surgical displacement, followed by readhesion to other tissues. […]

HT-29 xenografts = assay: Subcutaneous colon cancer xenograft in athymic mice; format: in vivo, mouse
Method: (§1) DLD-1, HCT-116, and HT-29 cells were cultured for 6 days in soft agar in the presence of DMSO (control), 10 μM BAY 11-7082, or 10 μM BAY 11-7085. The data points represent the means of colony counts per field (20×) performed in 5 different regions of the culture dishes. The data shown represent a typical result of two separate experiments. FIG. 2B and FIG. 2C are graphs that show athymic mice received subcutaneous injections of HT-29 (FIG. B) or HCT-116 (FIG. C) cells, followed by […] of BAY 11-7085 (dark bars) or DMSO (white bars) intraperitoneally twice weekly. The bars represent the 25-75% ranges of the tumor volumes and the horizontal lines in the bars are the medians. Using the Kruskal-Wallace statistical test to compare the median tumor volumes between BAY 11-7085 and DMSO yielded a p-value of 0.005 for HT-29 cells but >0.05 for HCT-116 cells.
(§2) HT-29 and HCT-116 cells were harvested in 0.25% trypsin-PBS-EDTA, washed once in media and PBS, and resuspended in PBS at 1 million cells per 200 μL. One million cells were injected either subcutaneously in the backs or intraperitoneally in 5 week old female nu/nu athymic mice (Charles River Labs). For the mice with subcutaneous tumors, the tumors were allowed to establish themselves for 10 days after which they were randomized to BAY 11-7085 or DMSO. For the mice with intraperitoneal tumors, the mice received DMSO or BAY 11-7085 (5 mg/kg) 24 hours before the cancer cells were injected intraperitoneally. […] Subcutaneous tumor sizes were determined by measuring the length and width with calipers. These studies were approved by the University of Utah Institutional Review Board and Institutional Animal Care and Use Committee and performed in the Animal Resource Center. Mice were euthanized when they experienced a greater than 10% loss in body weight or if they appeared ill. Post-mortem examinations included sectioning of kidney, lung, and liver tissues which were stained with hematoxylin and eosin followed by examination for tissue toxicity/damage by an experienced mouse pathologist (E.J.E.) who was blinded to therapy.
(§3) HCT-116 and HT-29 cell lines were used to generate subcutaneous tumors in athymic female mice. The mice were subsequently randomized to be treated with vehicle (DMSO) alone or BAY 11-7085 […] twice weekly for 28 days.

HCT-116 xenografts = assay: as above; format: in vivo, mouse; conditions: HCT-116 subcutaneous xenografts; BAY 11-7085 1 mg/kg twice weekly for 28 days vs DMSO
Method: as §1, §2, §3

NF-κB = NF-κB electrophoretic mobility shift assay (EMSA), nuclear lysates of treated HT-29 cells; format: cell-based, human; conditions: 10 μM, 3 and 6 hour incubations

SMILES: CC(C)(C)c1ccc(S(=O)(=O)/C=C/C#N)cc1 [BAY 11-7085, (2E)-3-[4-(tertiarybutylphenyl)sulfonyl]-2-propenenitrile]
- apoptotic cells among cells that remained adherent (adherent HT-29 cells; HT-29 treated with increasing concentrations of BAY 11-7085, adherent fraction): only a minority of the adherent cells was apoptotic
- apoptotic cells among cells that became nonadherent (adherent HT-29 cells; HT-29 treated with increasing concentrations of BAY 11-7085, nonadherent fraction): the majority of nonadherent cells were apoptotic; also recorded: predominantly apoptotic
- level of apoptosis (annexin V-positive, propidium iodide-negative cells) (adherent HT-29 cells; adherent HT-29, 24 hours, BAY compounds at doses up to 20, MG-132 20 μM): relatively greater for MG-132 than BAY 11-7085; also recorded: caused an increase in the level of apoptosis
- apoptosis of adherent HT-29 cell monolayers (adherent HT-29 cells; even the highest doses (10-100 μM), compared with transiently suspended cells): only a relatively small degree of apoptosis
- metastases of parietal and visceral peritoneum (HCT-116 cells): clear evidence of metastases
- tumor volumes vs control group (HT-29 xenografts; HT-29 subcutaneous xenografts, BAY 11-7085 1 mg/kg twice weekly for 28 days vs DMSO): statistically significant overall reduction in the tumor volumes
- colon cancer xenograft growth (HT-29 xenografts; athymic mice, compound alone, cell line not given): inhibit colon cancer xenograft growth
- tumor volumes vs control group (HCT-116 xenografts): no statistically significant overall difference in the tumor volumes
- inhibition of NF-κB activity (EMSA) (NF-κB): more profound inhibition of NF-κB activity
